Our source for the Ki values is BindingDB's records for doi:10.1016/0028-3908(95)00017-z (Merz, 1995).

Molecules are shown by their SMILES. Where “and” joins values, the source holds several entries; their conditions need not be identical. Equal values may be shown once.

This assay addresses Glutamate receptor ionotropic, NMDA 1 (Rattus norvegicus, UniProt P35439).

The term Ki denotes a measure of affinity in units of concentration, obtained from inhibition or displacement. Read a low Ki as a stronger hold on the target. As to `CN[C@@]1(c2ccccc2Cl)CCCCC1=O` [2-(2-Chloro-phenyl)-2-methylamino-cyclohexanone(Ketamine)], the Ki is 1190 nM and 2510 nM.
Turning to `N[C@@H](Cc1ccc(Cl)cc1)C(=O)O` [CAS_7424-00-2], the Ki was 42.2 nM and 180 nM.
